Data from PubChem BioAssay AID248 (DTP/NCI, 2004).
Inconclusive results and toxic doses are left out. Rule as the data show it: active = T/C of 150% or more; inactive = T/C below 125%.

Test system: L1210 leukemia ip in BDF1 mice, survival T/C
Assay: NCI In Vivo Anticancer Drug Screen. Data for tumor model L1210 Leukemia (intraperitoneal) in B6D2F1 (BDF1) mice
Conditions: endpoint: mean survival time, higher = longer survival
Method in brief: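 Transplantable tumor model; survival measured in treated vs vehicle control mice. Value = treated/control.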

[1] = dose: 50.0 mg/kg/injection, schedule: Q01DX001 (ip), vehicle: saline
[2] = dose: 100.0 mg/kg/injection, schedule: Q01DX001 (ip), vehicle: saline
[3] = dose: 200.0 mg/kg/injection, schedule: Q01DX001 (ip), vehicle: saline
[4] = dose: 400.0 mg/kg/injection, schedule: Q01DX001 (ip), vehicle: saline
[5] = dose: 100.0 mg/kg/injection, schedule: Q01DX001 (ip), vehicle: Klucel (hydroxypropylcellulose) (HPC)
[6] = dose: 200.0 mg/kg/injection, schedule: Q01DX001 (ip), vehicle: Klucel (hydroxypropylcellulose) (HPC)
[7] = dose: 50.0 mg/kg/injection, schedule: Q01DX001 (ip), vehicle: carboxymethylcellulose (CMC)
[8] = dose: 100.0 mg/kg/injection, schedule: Q01DX001 (ip), vehicle: carboxymethylcellulose (CMC)
[9] = dose: 200.0 mg/kg/injection, schedule: Q01DX001 (ip), vehicle: carboxymethylcellulose (CMC)
[10] = dose: 400.0 mg/kg/injection, schedule: Q01DX001 (ip), vehicle: carboxymethylcellulose (CMC)
[11] = dose: 300.0 mg/kg/injection, schedule: Q01DX001 (ip), vehicle: saline

Measured: T/C

CC(=O)Nc1nncs1
inactive: dose: 7.0 mg/kg/injection, schedule: Q03HX032 (ip), vehicle: saline with Tween-80 105 % of control | dose: 11.0 mg/kg/injection, schedule: Q03HX032 (ip), vehicle: saline with Tween-80 108 % of control | dose: 16.0 mg/kg/injection, schedule: Q03HX032 (ip), vehicle: saline with Tween-80 107 % of control | dose: 24.0 mg/kg/injection, schedule: Q03HX032 (ip), vehicle: saline with Tween-80 101 % of control | dose: 27.0 mg/kg/injection, schedule: Q01DX015 (ip), vehicle: saline with Tween-80 109 % of control | dose: 31.0 mg/kg/injection, schedule: Q01DX015 (ip), vehicle: carboxymethylcellulose (CMC) 96 % of control | dose: 36.0 mg/kg/injection, schedule: Q03HX032 (ip), vehicle: saline with Tween-80 108 % of control | dose: 40.0 mg/kg/injection, schedule: Q01DX015 (ip), vehicle: saline with Tween-80 95 % of control | [1] 112 % of control | dose: 60.0 mg/kg/injection, schedule: Q01DX015 (ip), vehicle: saline with Tween-80 97 % of control | dose: 62.0 mg/kg/injection, schedule: Q01DX015 (ip), vehicle: carboxymethylcellulose (CMC) 102 % of control | dose: 90.0 mg/kg/injection, schedule: Q01DX015 (ip), vehicle: saline with Tween-80 101 % of control | [2] 115 % of control | dose: 135.0 mg/kg/injection, schedule: Q01DX015 (ip), vehicle: saline with Tween-80 95 % of control | [3] 112 % of control | dose: 248.0 mg/kg/injection, schedule: Q01DX015 (ip), vehicle: carboxymethylcellulose (CMC) 98 % of control | dose: 270.0 mg/kg/injection, schedule: Q01DX001 (ip), vehicle: saline with Tween-80 101 % of control | dose: 400.0 mg/kg/injection, schedule: Q01DX001 (ip), vehicle: saline with Tween-80 109 % of control | [4] 106 % of control | dose: 600.0 mg/kg/injection, schedule: Q01DX001 (ip), vehicle: saline with Tween-80 112 % of control | dose: 900.0 mg/kg/injection, schedule: Q01DX001 (ip), vehicle: saline with Tween-80 109 % of control | dose: 1350.0 mg/kg/injection, schedule: Q01DX001 (ip), vehicle: saline with Tween-80 120 % of control

C/C(=N/O)c1ccc[nH]1
inactive: dose: 100.0 mg/kg/injection, schedule: Q01DX001 (ip), vehicle: other 103 % of control | dose: 200.0 mg/kg/injection, schedule: Q01DX001 (ip), vehicle: other 103 % of control | dose: 400.0 mg/kg/injection, schedule: Q01DX001 (ip), vehicle: other 103 % of control

O=C(/C=C/c1ccc2c(c1)OCO2)c1ccc([N+](=O)[O-])cc1
inactive: dose: 100.0 mg/kg/injection, schedule: Q04DX003 (ip), vehicle: alcohol 93 % of control | dose: 200.0 mg/kg/injection, schedule: Q04DX003 (ip), vehicle: alcohol 90 % of control | dose: 400.0 mg/kg/injection, schedule: Q04DX003 (ip), vehicle: alcohol 93 % of control

CCOc1ccc2cc(Br)ccc2c1
inactive: dose: 50.0 mg/kg/injection, schedule: Q01DX001 (ip), vehicle: Klucel (hydroxypropylcellulose) (HPC) 101 % of control | [5] 106 % of control | [6] 97 % of control

CS(=O)(=O)OCCN1CCC2(CC1)SSC1(CCN(CCOS(C)(=O)=O)CC1)S2
inactive: dose: 6.25 mg/kg/injection, schedule: Q01DX009 (ip), vehicle: saline 98 % of control | dose: 12.5 mg/kg/injection, schedule: Q01DX009 (ip), vehicle: saline 101 % of control | dose: 12.5 mg/kg/injection, schedule: Q04DX003 (ip), vehicle: saline 108 % of control | dose: 25.0 mg/kg/injection, schedule: Q04DX003 (ip), vehicle: saline 95 % of control

CN(C(=O)Cc1ccccc1)c1ccccc1[N+](=O)[O-]
inactive: [1] 98 % of control | [2] 104 % of control | [3] 95 % of control | [4] 101 % of control

CCCCCCCCCCC1CCC2C(C1)CC1C3CCCCC3CC21 (stereo not given)
inactive: [2] 97 % of control | [3] 97 % of control | [4] 96 % of control

Cc1cc(/C=C2\C=Cc3ccccc32)ccc1N(C)C
inactive: [2] 94 % of control | [3] 93 % of control | [4] 98 % of control

CC1(C)N=C(N)N=C(N)N1c1cccc(CCC(=O)Nc2ccc(S(=O)(=O)F)cc2)c1
inactive: dose: 0.8 mg/kg/injection, schedule: Q01DX009 (ip), vehicle: saline 103 % of control | dose: 4.0 mg/kg/injection, schedule: Q01DX009 (ip), vehicle: saline 101 % of control | dose: 20.0 mg/kg/injection, schedule: Q01DX009 (ip), vehicle: saline 103 % of control | dose: 100.0 mg/kg/injection, schedule: Q01DX009 (ip), vehicle: saline 112 % of control

COC(=O)CCCc1c[nH]c2ccccc12
inactive: dose: 100.0 mg/kg/injection, schedule: Q01DX009 (ip), vehicle: other 93 % of control | dose: 200.0 mg/kg/injection, schedule: Q01DX009 (ip), vehicle: other 100 % of control | dose: 400.0 mg/kg/injection, schedule: Q01DX009 (ip), vehicle: other 90 % of control

COc1ccc2c(C)cc(C)nc2n1
inactive: dose: 75.0 mg/kg/injection, schedule: Q04DX002 (ip), vehicle: saline 104 % of control | dose: 150.0 mg/kg/injection, schedule: Q04DX002 (ip), vehicle: saline 112 % of control | dose: 300.0 mg/kg/injection, schedule: Q04DX002 (ip), vehicle: saline 108 % of control

CCCCC(=O)N1C(C)CCC1C (stereo not given)
inactive: dose: 100.0 mg/kg/injection, schedule: Q04DX002 (ip), vehicle: saline 105 % of control | dose: 200.0 mg/kg/injection, schedule: Q04DX002 (ip), vehicle: saline 88 % of control

CC(=O)c1ccc(-c2ccc(C(C)=O)cc2)cc1
inactive: dose: 100.0 mg/kg/injection, schedule: Q04DX002 (ip), vehicle: Klucel (hydroxypropylcellulose) (HPC) 97 % of control | dose: 200.0 mg/kg/injection, schedule: Q04DX002 (ip), vehicle: Klucel (hydroxypropylcellulose) (HPC) 101 % of control | dose: 400.0 mg/kg/injection, schedule: Q04DX002 (ip), vehicle: Klucel (hydroxypropylcellulose) (HPC) 97 % of control

Cn1c(C(Cl)Cl)nc2ccccc2c1=O
inactive: [7] 106 % of control | [8] 106 % of control | [9] 106 % of control | [10] 97 % of control

C=CCOCC(O)CN(C)c1ccccc1 (stereo not given)
inactive: dose: 100.0 mg/kg/injection, schedule: Q01DX009 (ip), vehicle: Klucel (hydroxypropylcellulose) (HPC) 101 % of control | dose: 100.0 mg/kg/injection, schedule: Q04DX003 (ip), vehicle: Klucel (hydroxypropylcellulose) (HPC) 96 % of control | dose: 200.0 mg/kg/injection, schedule: Q01DX009 (ip), vehicle: Klucel (hydroxypropylcellulose) (HPC) 112 % of control | dose: 200.0 mg/kg/injection, schedule: Q04DX003 (ip), vehicle: Klucel (hydroxypropylcellulose) (HPC) 95 % of control | dose: 400.0 mg/kg/injection, schedule: Q01DX009 (ip), vehicle: Klucel (hydroxypropylcellulose) (HPC) 91 % of control | dose: 400.0 mg/kg/injection, schedule: Q04DX003 (ip), vehicle: Klucel (hydroxypropylcellulose) (HPC) 93 % of control

Cc1ccc(S(=O)(=O)N2CC(O)C(O)C2CO)cc1 (stereo not given)
inactive: dose: 50.0 mg/kg/injection, schedule: Q01DX005 (ip), vehicle: saline 96 % of control | dose: 100.0 mg/kg/injection, schedule: Q01DX005 (ip), vehicle: saline 104 % of control | dose: 200.0 mg/kg/injection, schedule: Q01DX005 (ip), vehicle: saline 102 % of control

CCCCCCCCC(=O)N1CCN(C(=O)CCCCCCCC)C1
inactive: dose: 30.0 mg/kg/injection, schedule: Q01DX001 (ip), vehicle: saline 96 % of control | [2] 96 % of control | [11] 91 % of control

CCOC1(OCC)C(C)C(c2ccccc2)C(c2ccccc2)C1C (stereo not given)
inactive: dose: 75.0 mg/kg/injection, schedule: Q01DX001 (ip), vehicle: saline 95 % of control | dose: 150.0 mg/kg/injection, schedule: Q01DX001 (ip), vehicle: saline 90 % of control | [11] 89 % of control

O=C1C(=O)c2cc(Br)ccc2-c2ccc(Br)cc21
inactive: [7] 107 % of control | [8] 107 % of control | [9] 100 % of control | [10] 89 % of control

Cc1cccc(C)c1/[N+]([O-])=C/c1ccc(Cl)cc1
inactive: [5] 101 % of control | [6] 98 % of control | dose: 400.0 mg/kg/injection, schedule: Q01DX001 (ip), vehicle: Klucel (hydroxypropylcellulose) (HPC) 108 % of control

CS(=O)(=O)c1ccc2c(c1)-c1ccc(N)cc1C2=O
inactive: [8] 117 % of control | [9] 102 % of control | [10] 102 % of control

CC(C)c1ccc2c(c1)CCC1C2CCCC1(C)NCc1ccccc1 (stereo not given)
inactive: dose: 55.0 mg/kg/injection, schedule: Q01DX Z (ip), vehicle: methylcellulose (MC) 87 % of control
